Data on one compound can be found in patent publication US10098879B2 (priority 2015, dated 2018).

Molecules are shown by their SMILES.

Series [1] concerns Ebola virus. The conditions noted are these: mouse, in vivo, 150 mg/kg; cited from earlier work.
The test system of series [2] is Ebola virus (EBOV). Particulars: human, in vivo.

For the compound `NC(=O)c1nc(F)cnc1O` [Favipiravir, 6-fluoro-3-hydroxy-2-pyrazinecarboxamide], in series [1], the “Biochemical parameters of disease severity” value was “reduced biochemical parameters of disease severity”, the Survival is reported as 100% and the Virus clearance result is “rapid virus clearance”. In series [2], the “Effect on survival, patients with CT<20” value is “no indication that favipiravir monotherapy improved survival”; the “Mortality (participants died), baseline CT <20” value came out at 85%; the “Mortality (participants died), baseline CT ≥20” value was 15%; the “Mortality in patients with abnormal baseline creatinine values and BCT<20” value was found to be 100%. In series [2], the “Mortality in patients with abnormal baseline creatinine values and BCT≥20” value came to 7%; the “Mortality rate versus pre-trial figures, patients with CT≥20” value was “lower mortality rate compared to pre-trial figures”. For the same compound, in series [2] (po), the “Mortality (participants died), overall” value came to 48% and the “Tolerance of the drug” value was “well tolerated”.
